The text below walks through data of publication PMC8949503, “Radiosynthesis and Preclinical Evaluation of Bispecific PSMA/FAP Heterodimers for Tumor Imaging” (Pharmaceuticals, 2022).

For orientation: IC50 means the midpoint of a concentration-inhibition curve. High values mean a need for much substance, low ones inhibition by little substance.

In one data set the target is T1, FAP (Homo sapiens, UniProt Q12884).
T1 construct: expressed in transfected cells
T1 sequence (Q12884 1-760): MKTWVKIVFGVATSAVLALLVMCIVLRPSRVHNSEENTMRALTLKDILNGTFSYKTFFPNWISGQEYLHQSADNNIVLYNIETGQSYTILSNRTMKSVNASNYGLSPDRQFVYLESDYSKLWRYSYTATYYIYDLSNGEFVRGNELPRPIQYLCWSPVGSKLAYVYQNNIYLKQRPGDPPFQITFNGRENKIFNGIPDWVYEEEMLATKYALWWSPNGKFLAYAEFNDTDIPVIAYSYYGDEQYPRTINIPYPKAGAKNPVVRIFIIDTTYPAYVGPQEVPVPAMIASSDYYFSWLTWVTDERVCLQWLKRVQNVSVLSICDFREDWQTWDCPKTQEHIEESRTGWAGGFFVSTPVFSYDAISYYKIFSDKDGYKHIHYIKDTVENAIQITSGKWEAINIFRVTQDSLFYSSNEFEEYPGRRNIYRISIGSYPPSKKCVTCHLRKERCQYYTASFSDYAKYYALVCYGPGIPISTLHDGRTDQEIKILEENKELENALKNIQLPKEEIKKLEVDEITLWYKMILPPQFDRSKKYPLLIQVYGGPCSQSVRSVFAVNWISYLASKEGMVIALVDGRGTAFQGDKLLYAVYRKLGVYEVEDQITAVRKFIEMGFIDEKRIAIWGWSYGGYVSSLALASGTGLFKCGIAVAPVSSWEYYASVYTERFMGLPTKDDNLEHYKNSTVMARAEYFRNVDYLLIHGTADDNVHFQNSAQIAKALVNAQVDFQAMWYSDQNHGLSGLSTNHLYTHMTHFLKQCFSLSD
In words: competitive binding to FAP on A549-FAP cells vs [18F]FAPI-42. Conditions: for IC50: competition with [18F]FAPI-42, 60 min 37 °C. On the procedure: (§1) PSMA-positive 22Rv1 cells (purchased from Institute of Biochemistry and Cell Biology, Shanghai, China) and stably FAP-transfected A549-FAP cells (acquired using lentiviral infection) were used for the cell-based experiments. The 22Rv1 cells were cultivated in RPMI-1640 medium (Gibco) at 37 °C/5% carbon dioxide, while the A549-FAP cells were cultivated in DMEM medium. Both media were supplemented with 10% heat-inactivated fetal bovine serum (FBS) and 1% penicillin/streptomycin (Gibco). Puromycin (1 µg/mL) was also added to the media to maintain FAP expression.
(§2) Cells were seeded in 12-well plates 2 days in advance to achieve a final confluence of approximately 80–90% (4–5 × 10^5 cells/well). The medium was displaced by 1 mL fresh medium without FBS. The method of cell studies was similar to a method reported previously. For the competitive binding experiments, cells were incubated with the known radiotracers ([^18F]FAPI-42 for the FAP receptor and [^18F]AlF-PSMA-BCH for PSMA) in the presence of 7 different concentrations (10^−5–10^−11 M) of the corresponding unlabeled heterodimers or corresponding monomer and incubated for 60 min at 37 °C. In all experiments, the cells were washed twice with PBS, lysed with 1 M NaOH, and counted using a γ-counter. IC50 values were calculated by fitting the data using a nonlinear regression algorithm (implemented in SPSS). For the radioligand binding studies, the cells were incubated for 5, 15, 30, 60, or 120 min at 37 °C after the addition of the heterodimer or corresponding monomeric radiotracer radiotracers. The blocking experiments were determined by adding the corresponding competitors (4.4 μM 2-PMPA for 22Rv1 cells and 2.3 μM DOTA-FAPI-04 for A549-FAP cells). Radioactivity was measured using a γ-counter, normalized to 1 million cells (1 mio cells), and calculated as the percentage of the applied dose (%ID/1 mio cells). For the internalization experiments, the cells were incubated with the radiolabeled compound for 60 min, washed twice with 1 mL PBS, and then incubated for 10 min with 1 mL glycine HCl (1 M, pH 2.2) to detach the extracellular bound tracer. Next, the cells were washed with PBS (2.0 mL) and lysed with 1 M NaOH (1.5 mL). The radioactivity of the acid wash solution (extracellularly bound tracer) and cell lysate (internalized tracer) was assessed separately using a γ-counter. For the efflux experiments, the radioactive medium was removed after 60 min incubation and replaced with non-radioactive medium. At predetermined time points of 15, 30, 60, and 120 min, the cells were washed with 1.0 mL PBS three times and then lysed. The radioactivity of the remaining cells was assessed using a γ-counter. Each experiment was conducted three times with three or four replicates per independent experiment.

In the next data set the target is T2, PSMA (Homo sapiens, UniProt Q04609).
T2 construct: PSMA-positive 22Rv1 cells; host or cells: 22Rv1 cells
In words: competitive binding to PSMA on 22Rv1 cells vs [18F]AlF-PSMA-BCH. Conditions: for IC50: competition with [18F]AlF-PSMA-BCH, 60 min 37 °C. On the procedure:
as §1, §2

Data set [1] has as its system 22Rv1 tumor-bearing nude mice. As to the kind of experiment: tissue biodistribution and blocking in 22Rv1 tumor-bearing nude mice. It is filed as in vivo. Particulars: 1 h p.i. As to the method:
(§3) For the biodistribution and micro-PET imaging studies, male BALB/c nude mice (6–8 weeks) were subcutaneously inoculated with 1 × 10^7 22Rv1 or 5 × 10^6 A549-FAP cells in the right shoulder. Mice were imaged or used in the biodistribution studies when the tumor reached 5–10 mm in diameter.
(§4) Mice bearing 22Rv1 or A549-FAP (n = 4 in each group) tumors were euthanized 60 min after intravenous administration of each tracer (740–1480 KBq/mouse). In the blocking group, the same experiment was conducted by co-injecting 50 μg of 2-PMPA for mice bearing 22Rv1 tumors or 50 μg of DOTA-FAPI-04 for mice bearing A549-FAP tumors. The organs of interest and tumors were quickly dissected and weighed. Radioactivity was assessed using a γ-counter and calculated as the percentage injected dose per gram (%ID/g).

Data set [2] relates to A549-FAP tumor-bearing nude mice. As to the kind of experiment: tissue biodistribution and blocking in A549-FAP tumor-bearing nude mice. It is filed as in vivo. Particulars: 1 h p.i. On the procedure:
as §3, §4

T2 sequence (Q04609 whole entry): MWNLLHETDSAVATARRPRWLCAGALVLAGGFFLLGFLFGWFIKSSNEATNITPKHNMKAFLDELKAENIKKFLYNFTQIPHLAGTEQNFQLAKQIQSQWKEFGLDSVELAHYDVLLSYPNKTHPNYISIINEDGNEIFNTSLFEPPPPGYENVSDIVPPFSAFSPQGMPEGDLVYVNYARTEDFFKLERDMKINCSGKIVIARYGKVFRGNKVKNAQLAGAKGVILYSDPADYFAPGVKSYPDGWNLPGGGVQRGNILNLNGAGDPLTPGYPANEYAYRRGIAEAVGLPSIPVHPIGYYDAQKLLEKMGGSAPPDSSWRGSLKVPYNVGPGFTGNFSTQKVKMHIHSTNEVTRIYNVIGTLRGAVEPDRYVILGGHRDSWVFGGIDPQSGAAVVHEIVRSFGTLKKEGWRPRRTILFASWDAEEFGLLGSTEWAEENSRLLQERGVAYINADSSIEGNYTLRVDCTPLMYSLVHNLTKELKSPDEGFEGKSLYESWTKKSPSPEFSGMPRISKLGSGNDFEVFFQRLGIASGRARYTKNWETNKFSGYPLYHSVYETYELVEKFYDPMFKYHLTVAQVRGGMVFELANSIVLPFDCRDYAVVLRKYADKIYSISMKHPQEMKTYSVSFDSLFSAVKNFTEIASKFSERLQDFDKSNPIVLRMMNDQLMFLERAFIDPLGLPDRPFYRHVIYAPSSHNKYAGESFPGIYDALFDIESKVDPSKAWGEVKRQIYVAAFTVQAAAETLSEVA

For `N#C[C@@H]1CC(F)(F)CN1C(=O)CNC(=O)c1ccnc2ccc(OCCCN3CCN(C(=O)CN4CCN(CC(=O)O)CCN(CC(=O)O)CC4)CC3)cc12` [NOTA-FAPI-42, reference compound], the IC50 at FAP was 14.5 nM.

As to `O=C(O)CC[C@H](NC(=O)N[C@@H](CCCCNC(=O)[C@@H](Cc1ccc2ccccc2c1)NC(=O)C1CCC(CNC(=O)CN2CCN(CC(=O)O)CCN(CC(=O)O)CC2)CC1)C(=O)O)C(=O)O` (stereo partly drawn) [NOTA-PSMA-BCH, reference compound], at PSMA, the IC50 was determined as 2.5 nM.

Turning to `N#C[C@@H]1CC(F)(F)CN1C(=O)CNC(=O)c1ccnc2ccc(OCCCC(=O)NCCCC[C@H](NC(=O)CN3CCN(CC(=O)O)CCN(CC(=O)O)CC3)C(=O)NCC3CCC(C(=O)N[C@H](Cc4ccc5ccccc5c4)C(=O)NCCCC[C@H](NC(=O)N[C@@H](CCC(=O)O)C(=O)O)C(=O)O)CC3)cc12` (stereo partly drawn) [NOTA-PSMA-FAPI-01], on PSMA, the “fold less potent than the monomer NOTA-PSMA-BCH” value is “approximately 13 fold” and the 50% inhibitory concentration (IC50) was 33.7 nM. In addition, at FAP, the “fold higher in potency than the monomer NOTA-FAPI-42” value is given as “approximately 9 fold” and the half-maximal inhibitory concentration (IC50) was determined as 1.7 nM.

Regarding `N#C[C@@H]1CC(F)(F)CN1C(=O)CNC(=O)c1ccnc2ccc(OCCCN3CCN(C(=O)CCC(=O)NCCCC[C@H](NC(=O)CN4CCN(CC(=O)O)CCN(CC(=O)O)CC4)C(=O)NCC4CCC(C(=O)N[C@H](Cc5ccc6ccccc6c5)C(=O)NCCCC[C@H](NC(=O)N[C@@H](CCC(=O)O)C(=O)O)C(=O)O)CC4)CC3)cc12` (stereo partly drawn) [NOTA-PSMA-FAPI-02], on PSMA, the “fold less potent than the monomer NOTA-PSMA-BCH” value is on record as ~4 fold and the IC50 was found to be 9.8 nM. In addition, at FAP, the “fold higher in potency than the monomer NOTA-FAPI-42” value is ~3 fold and the IC50 came to 5.8 nM.

For the molecule `O=C(O)CC[C@H](NC(=O)N[C@@H](CCCCNC(=O)[C@@H](Cc1ccc2ccccc2c1)NC(=O)C1CCC(CNC(=O)CN2CCN3CCN(CC2)CC(=O)[O][Al]([18F])[O]C(=O)C3)CC1)C(=O)O)C(=O)O` (stereo partly drawn) [[^18F]AlF-PSMA-BCH], in data set [1], the “22Rv1 tumor* uptake” value was 6.44 ± 1.78 %ID/g, the Blood uptake was determined as 0.56 ± 0.19 %ID/g, the Bone uptake worked out at 0.84 ± 0.39 %ID/g and the Brain uptake worked out at 0.14 ± 0.04 %ID/g. Moreover, in data set [1], the Gall bladder uptake worked out at 6.62 ± 4.25 %ID/g, the Heart uptake is given as 0.45 ± 0.10 %ID/g, the “Kidney* uptake” value worked out at 66.10 ± 18.80 %ID/g and the Liver uptake was determined as 0.47 ± 0.03 %ID/g. Moreover, in data set [1], the Lung uptake is listed as 0.86 ± 0.25 %ID/g, the Muscle uptake turned out to be 0.31 ± 0.10 %ID/g, the Small intestine uptake amounted to 0.78 ± 0.12 %ID/g and the Spleen uptake stood at 1.33 ± 0.54 %ID/g. The molecule also gave a Stomach uptake in data set [1] of 0.41 ± 0.05 %ID/g.

In data set [2], `N#C[C@@H]1CC(F)(F)CN1C(=O)CNC(=O)c1ccnc2ccc(OCCCN3CCN(C(=O)CN4CCN5CCN(CC4)CC(=O)[O][Al]([F])[O]C(=O)C5)CC3)cc12` [[^18F]FAPI-42, reference compound] yielded an A549-FAP tumor uptake of 5.25 ± 0.27 %ID/g, a Blood uptake of 1.52 ± 0.22 %ID/g, a Bone uptake of 7.29 ± 1.52 %ID/g and a Brain uptake of 0.10 ± 0.01 %ID/g. Further, in data set [2], the Gall bladder uptake is 10.58 ± 0.83 %ID/g, the Heart uptake came to 0.76 ± 0.09 %ID/g, the Kidney uptake amounted to 1.86 ± 0.11 %ID/g and the Liver uptake came out at 0.83 ± 0.19 %ID/g. In data set [2], the Lung uptake is 0.96 ± 0.11 %ID/g, the Muscle uptake was 1.86 ± 0.32 %ID/g, the Small intestine uptake is listed as 2.85 ± 0.91 %ID/g and the Spleen uptake came out at 0.64 ± 0.04 %ID/g. Also, the Stomach uptake in data set [2] is on record as 0.56 ± 0.03 %ID/g.
